From PubChem BioAssay AID1919016 (Molecular Pharmacology Branch, DTP, NCI, 2023)
Blank lines part the entries; values can stand above or below the compound they belong to.

Tested on: NCI-H196 complex spheroid growth, percent test/control
Assay: Anticancer human tumor NCI-H196 cell line growth inhibition [AhR];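 note: seven days of drug exposure starting three days after plating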;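 for viability, T/C: 100% = DMSO vehicle control wells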
Details: for viability, T/C: stronger effect = lower value
Summary of the method: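 Spheroids combined tumor cells with HUVEC endothelial cells and human MSCs as stroma. AhR antagonists were paired with standard or investigational drugs, each dosed in half-log steps down from near clinical Cmax, or from 10 microM where Cmax was unknown.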

[1] = curve of first compound, second compound 0.1 µM
[2] = curve of first compound, second compound 0.316 µM
[3] = curve of first compound, second compound 1 µM
[4] = curve of first compound, second compound 3.16 µM
[5] = curve of first compound, second compound 10 µM
[6] = second compound 0.1 µM, first compound 0.00316 µM
[7] = second compound 0.1 µM, first compound 0.01 µM
[8] = second compound 0.1 µM, first compound 0.0316 µM
[9] = second compound 0.1 µM, first compound 0.1 µM
[10] = second compound 0.316 µM, first compound 0.00316 µM
[11] = second compound 0.316 µM, first compound 0.01 µM
[12] = second compound 0.316 µM, first compound 0.0316 µM
[13] = second compound 0.316 µM, first compound 0.1 µM
[14] = second compound 1 µM, first compound 0.00316 µM
[15] = second compound 1 µM, first compound 0.01 µM
[16] = second compound 1 µM, first compound 0.0316 µM
[17] = second compound 1 µM, first compound 0.1 µM
[18] = second compound 3.16 µM, first compound 0.00316 µM
[19] = second compound 3.16 µM, first compound 0.01 µM
[20] = second compound 3.16 µM, first compound 0.0316 µM
[21] = second compound 3.16 µM, first compound 0.1 µM
[22] = second compound 10 µM, first compound 0.00316 µM
[23] = second compound 10 µM, first compound 0.01 µM
[24] = second compound 10 µM, first compound 0.0316 µM
[25] = second compound 10 µM, first compound 0.1 µM
[26] = second compound 0.1 µM, first compound 0.316 µM
[27] = second compound 0.1 µM, first compound 1 µM
[28] = second compound 0.316 µM, first compound 0.316 µM
[29] = second compound 0.316 µM, first compound 1 µM
[30] = second compound 1 µM, first compound 0.316 µM
[31] = second compound 1 µM, first compound 1 µM
[32] = second compound 3.16 µM, first compound 0.316 µM
[33] = second compound 3.16 µM, first compound 1 µM
[34] = second compound 10 µM, first compound 0.316 µM
[35] = second compound 10 µM, first compound 1 µM

- IC50 [1]: 0.0144 µM
- IC50 [2]: 0.0156 µM
- IC50 [3]: 0.0158 µM
- IC50 [4]: 0.0159 µM
- IC50 [5]: 0.0168 µM
SMILES: CC(C)CC(NC(=O)C(Cc1ccccc1)NC(=O)c1cnccn1)B(O)O (stereo not given) + Cc1ccccc1N=Nc1ccc(NC(=O)c2ccnn2C)c(C)c1
- viability, T/C (second compound 0.1 µM, first compound 0.000949 µM): 97.6%
- viability, T/C (second compound 0.1 µM, first compound 0.003 µM): 101%
- viability, T/C (second compound 0.1 µM, first compound 0.00949 µM): 74.9%
- viability, T/C (second compound 0.1 µM, first compound 0.03 µM): 6.41%
- viability, T/C (second compound 0.1 µM, first compound 0.0949 µM): 4.21%
- viability, T/C (second compound 0.1 µM, first compound 0.3 µM): 5.04%
- viability, T/C (second compound 0.316 µM, first compound 0.000949 µM): 93.6%
- viability, T/C (second compound 0.316 µM, first compound 0.003 µM): 96.4%
- viability, T/C (second compound 0.316 µM, first compound 0.00949 µM): 83.1%
- viability, T/C (second compound 0.316 µM, first compound 0.03 µM): 6.9%
- viability, T/C (second compound 0.316 µM, first compound 0.0949 µM): 4.16%
- viability, T/C (second compound 0.316 µM, first compound 0.3 µM): 3.98%
- viability, T/C (second compound 1 µM, first compound 0.000949 µM): 90.8%
- viability, T/C (second compound 1 µM, first compound 0.003 µM): 101%
- viability, T/C (second compound 1 µM, first compound 0.00949 µM): 83%
- viability, T/C (second compound 1 µM, first compound 0.03 µM): 8.93%
- viability, T/C (second compound 1 µM, first compound 0.0949 µM): 4.78%
- viability, T/C (second compound 1 µM, first compound 0.3 µM): 6.96%
- viability, T/C (second compound 3.16 µM, first compound 0.000949 µM): 97.4%
- viability, T/C (second compound 3.16 µM, first compound 0.003 µM): 95.8%
- viability, T/C (second compound 3.16 µM, first compound 0.00949 µM): 83.8%
- viability, T/C (second compound 3.16 µM, first compound 0.03 µM): 8.44%
- viability, T/C (second compound 3.16 µM, first compound 0.0949 µM): 3.34%
- viability, T/C (second compound 3.16 µM, first compound 0.3 µM): 3.4%
- viability, T/C (second compound 10 µM, first compound 0.000949 µM): 89.2%
- viability, T/C (second compound 10 µM, first compound 0.003 µM): 90.5%
- viability, T/C (second compound 10 µM, first compound 0.00949 µM): 85.1%
- viability, T/C (second compound 10 µM, first compound 0.03 µM): 14.6%
- viability, T/C (second compound 10 µM, first compound 0.0949 µM): 8.98%
- viability, T/C (second compound 10 µM, first compound 0.3 µM): 5.84%

- IC50 [1]: > 0.1 µM
- IC50 [2]: > 0.1 µM
- IC50 [3]: > 0.1 µM
- IC50 [4]: > 0.1 µM
- IC50 [5]: > 0.1 µM
SMILES: CC[C@@]1(O)C(=O)OCc2c1cc1n(c2=O)Cc2cc3c(CN(C)C)c(O)ccc3nc2-1 + CC(CO)NC(=O)c1cc(-c2ccc(Cl)cc2)nn(-c2cnn(C)c2)c1=O
- viability, T/C (second compound 0.1 µM, first compound 0.000316 µM): 104%
- viability, T/C (second compound 0.1 µM, first compound 0.001 µM): 101%
- viability, T/C [6]: 97.8%
- viability, T/C [7]: 97%
- viability, T/C [8]: 111%
- viability, T/C [9]: 119%
- viability, T/C (second compound 0.316 µM, first compound 0.000316 µM): 111%
- viability, T/C (second compound 0.316 µM, first compound 0.001 µM): 110%
- viability, T/C [10]: 105%
- viability, T/C [11]: 105%
- viability, T/C [12]: 111%
- viability, T/C [13]: 129%
- viability, T/C (second compound 1 µM, first compound 0.000316 µM): 98.6%
- viability, T/C (second compound 1 µM, first compound 0.001 µM): 108%
- viability, T/C [14]: 116%
- viability, T/C [15]: 100%
- viability, T/C [16]: 113%
- viability, T/C [17]: 119%
- viability, T/C (second compound 3.16 µM, first compound 0.000316 µM): 110%
- viability, T/C (second compound 3.16 µM, first compound 0.001 µM): 111%
- viability, T/C [18]: 114%
- viability, T/C [19]: 96.8%
- viability, T/C [20]: 120%
- viability, T/C [21]: 118%
- viability, T/C (second compound 10 µM, first compound 0.000316 µM): 111%
- viability, T/C (second compound 10 µM, first compound 0.001 µM): 112%
- viability, T/C [22]: 116%
- viability, T/C [23]: 103%
- viability, T/C [24]: 113%
- viability, T/C [25]: 124%

- IC50 [1]: 0.943 µM
- IC50 [2]: 1.08 µM
- IC50 [3]: 0.967 µM
- IC50 [4]: 0.895 µM
- IC50 [5]: 0.732 µM
SMILES: COc1cccc2c1C(=O)c1c(O)c3c(c(O)c1C2=O)CC(O)(C(=O)CO)CC3OC1CC(N)C(O)C(C)O1 (stereo not given) + CC(CO)NC(=O)c1cc(-c2ccc(Cl)cc2)nn(-c2cnn(C)c2)c1=O
- viability, T/C [8]: 109%
- viability, T/C [9]: 105%
- viability, T/C [26]: 85.6%
- viability, T/C [27]: 52.8%
- viability, T/C (second compound 0.1 µM, first compound 3.16 µM): 1.78%
- viability, T/C (second compound 0.1 µM, first compound 10 µM): 0.87%
- viability, T/C [12]: 102%
- viability, T/C [13]: 116%
- viability, T/C [28]: 100%
- viability, T/C [29]: 53.8%
- viability, T/C (second compound 0.316 µM, first compound 3.16 µM): 1.55%
- viability, T/C (second compound 0.316 µM, first compound 10 µM): 1.77%
- viability, T/C [16]: 110%
- viability, T/C [17]: 116%
- viability, T/C [30]: 101%
- viability, T/C [31]: 49.6%
- viability, T/C (second compound 1 µM, first compound 3.16 µM): 1.06%
- viability, T/C (second compound 1 µM, first compound 10 µM): 2.36%
- viability, T/C [20]: 113%
- viability, T/C [21]: 110%
- viability, T/C [32]: 104%
- viability, T/C [33]: 44.4%
- viability, T/C (second compound 3.16 µM, first compound 3.16 µM): 0.77%
- viability, T/C (second compound 3.16 µM, first compound 10 µM): 1.04%
- viability, T/C [24]: 119%
- viability, T/C [25]: 122%
- viability, T/C [34]: 89.9%
- viability, T/C [35]: 36.6%
- viability, T/C (second compound 10 µM, first compound 3.16 µM): 0.56%
- viability, T/C (second compound 10 µM, first compound 10 µM): 2.67%

- IC50 (compound alone, run of 08/22/2022): > 10 µM
SMILES: Cc1ccccc1N=Nc1ccc(NC(=O)c2ccnn2C)c(C)c1
- viability, T/C (compound 0.1 µM): 96.4% [middle of 20 runs]
- viability, T/C (compound 0.316 µM): 98% [middle of 20 runs]
- viability, T/C (compound 3.16 µM): 95.8% [middle of 20 runs]
- viability, T/C (compound 10 µM): 93.3% [middle of 20 runs]

- IC50 [1]: > 1 µM
- IC50 [2]: > 1 µM
- IC50 [3]: > 1 µM
- IC50 [4]: > 1 µM
- IC50 [5]: > 1 µM
SMILES: CC1COCCN1c1cc(-c2ccnn2C)c2ccnc(-c3ccn[nH]3)c2n1 (stereo not given) + Cc1cncc(-c2nc(NCCc3c[nH]c4ccccc34)c3ncn(C(C)C)c3n2)c1
- viability, T/C [6]: 105%
- viability, T/C [7]: 96.6%
- viability, T/C [8]: 86.5%
- viability, T/C [9]: 70%
- viability, T/C [26]: 62.4%
- viability, T/C [27]: 60.7%
- viability, T/C [10]: 95.5%
- viability, T/C [11]: 94.1%
- viability, T/C [12]: 86.7%
- viability, T/C [13]: 71.2%
- viability, T/C [28]: 64.5%
- viability, T/C [29]: 52.7%
- viability, T/C [14]: 103%
- viability, T/C [15]: 97.7%
- viability, T/C [16]: 96.4%
- viability, T/C [17]: 79.4%
- viability, T/C [30]: 70.9%
- viability, T/C [31]: 57.9%
- viability, T/C [18]: 106%
- viability, T/C [19]: 123%
- viability, T/C [20]: 101%
- viability, T/C [21]: 88.8%
- viability, T/C [32]: 77.6%
- viability, T/C [33]: 58.2%
- viability, T/C [22]: 68.1%
- viability, T/C [23]: 80.7%
- viability, T/C [24]: 75.7%
- viability, T/C [25]: 66%
- viability, T/C [34]: 80%
- viability, T/C [35]: 71.8%
